Laboratory results as given in patent publication US9751081B2, “Self-regenerating antioxidant catalysts and methods of using the same” (Clemson University, priority 2014, dated 2017).
Each block holds one compound with its values, some of them ahead of it.

Assays:
[1] = published values; cited from earlier work
[2] = In situ oxidation of ABTS^2− to ABTS^•− via HRP and H2O2 in the presence of antioxidant; type: biochemical
[3] = Reduction of ABTS radical monoanion in EtOH (absorbance at 750 nm); type: biochemical
Protocol: To probe the potential antioxidant activity of Ru1, 2,2′-azino-bis(3-ethylbenzothiazoline-6-sulfonate) radical monoanion (ABTS^•−), which is stable in aerobic, protic media and undergoes reversible one-electron reduction to ABTS^2−, was selected as the substrate for studies of catalytic radical reduction (Scheme 7).
Accompanying this degradation of 50 μM ABTS^•− was an increase in absorbance at 340 nm corresponding to the formation of 50 μM ABTS^2−, indicating 1:1 conversion of ABTS^•− to ABTS^2− by Ru1.
To assess its catalytic potential and corresponding regeneration, the reactivity of Ru1 with multiple sequential aliquots of excess ABTS^•− was examined. After the reduction of 50 μM ABTS^•− by 5 μM Ru1 (DMSO stock) was complete (FIG. 12B, black line), 5 additional 50 μM aliquots of ABTS^•− were introduced, whereupon complete ABTS^•− reduction occurred each time (FIG. 12B, grey line, 60 turnovers). Although the time required for complete degradation increased with each successive ABTS^•− aliquot, 5 μM Ru1 nonetheless remained catalytically competent for the complete reduction of […] ABTS^•−.

[4] = Stability (air, moisture, solution); type: physicochemical; conditions: isolated powder

Compound: OCCO [EG, Ethylene glycol]
- pKa [1]: 14.22

Compound: CO [MeOH, methanol]
- pKa [1]: 15.5

Compound: Cc1c(C)c2c(c(C)c1O)CCC(C)(C(=O)O)O2 (stereo not drawn) [Trolox]
- net oxidation of ABTS^2− ([2]; 5 μM Trolox, 10 μM H2O2): 75%
- time with no change in absorbance at 734 nm (ABTS^•− formation halted) ([2]; 5 μM Trolox, 10 μM H2O2): 4.2 ± 0.4 min
- initial rate of ABTS^•− formation (v0) ([2]; 5 μM antioxidant (DMSO stock), 10 nM HRP, 50 μM ABTS^2−, first 10 μM H2O2, PBS): 3.44±0.11×10^−8 M s^−1
- maximum ABTS^•− concentration ([2]; first 10 μM H2O2): 15.06 ± 0.04 µM
- time to maximum ABTS^•− concentration ([2]; first 10 μM H2O2): 22.0 ± 0.5 min
- ABTS^•− reduced ([3]; 5 μM antioxidant, 50 μM ABTS^•− in EtOH): 10 µM
- decay in radical absorbance at 750 nm ([3]; 5 μM antioxidant, 50 μM ABTS^•− in EtOH, 25° C.): 20%
- equiv. of ABTS^•− reduced vs antioxidant ([3]; EtOH, non-catalytic capacity): 2 equiv.

- stability to air and moisture [4]: air- and moisture-stable
Compound: Br.Cc1cc(C)cc(-n2c[n+](CC(=O)[O-])c3ccccc32)c1 [[1H2][Br], 2-(3-{3,5-dimethylphenyl}-benzimidazol-1-ium-1-yl)acetate hydrobromide]

Compound: CC(C)O [i-PrOH, isopropanol]
- pKa [1]: 16.5
